# Measured values as given in US11634404B2 (priority 2016, dated 2023).
# Experiments:
# [1] = system: terminally differentiated SHSY5Y cells; assay: Neuroprotection assay against 6-hydroxydopamine; type: cell-based; details: 24 h pretreatment, 10 μM 6-hydroxydopamine
# Description: […]. Protection against total neurite length decrease was measured 24 h later. […].
# TA98 = assay: Ames reverse mutation assay; type: cell-based; details: highest conc. tested 2,000 μg/ml
# Description: (§1) […]. The cultures were then diluted into an indicator medium lacking histidine, dispensed into a 384-well plate, and incubated for 48 h at 37° C. Cells that have undergone a reversion will grow, resulting in a color change. The number of wells showing growth were counted and compared to the vehicle control. […]. Data were analyzed using an unpaired, one-sided Student's T-test. Where indicated, S9 fraction from the livers of Aroclor 1254-treated rats were included in the incubation at a 4.5% final concentration. An NADPH-regenerating system was also included to ensure a steady supply of reducing equivalents.
# TA100 = assay: Ames reverse mutation assay; type: cell-based; details: highest conc. tested 2,000 μg/ml
# Description: as §1
# [2] = system: receptors, transporters and some ion channels; assay: PDSP primary radioligand binding panel; details: 10 μM, >50% inhibition considered significant
# Source text: […]. […] […]. […] […].
# panel of 168 GPCRs [3] = target: panel of 168 GPCRs (Homo sapiens, UniProt Q16581); type: cell-based; details: GPCR C3AR1; agonist, 10 μM
# panel of 168 GPCRs [4] = target: panel of 168 GPCRs (Homo sapiens, UniProt P47211); type: cell-based; details: GPCR GALR1; agonist, 10 μM
# panel of 168 GPCRs [5] = target: panel of 168 GPCRs (Homo sapiens, UniProt P20309); type: cell-based; details: GPCR CHRM3; agonist, 10 μM
# panel of 168 GPCRs [6] = target: panel of 168 GPCRs (Homo sapiens, UniProt P18089); type: cell-based; details: GPCR ADRA2B; agonist, 10 μM
# panel of 168 GPCRs [7] = target: panel of 168 GPCRs (Homo sapiens, UniProt Q99500); type: cell-based; details: GPCR EDG3; agonist, 10 μM
# panel of 168 GPCRs [8] = target: panel of 168 GPCRs (Homo sapiens, UniProt P46663); type: cell-based; details: GPCR BDKRB1; agonist, 10 μM
# panel of 168 GPCRs [9] = target: panel of 168 GPCRs (Homo sapiens, UniProt P08588); type: cell-based; details: GPCR ADRB1; agonist, 10 μM
# panel of 168 GPCRs [10] = target: panel of 168 GPCRs (Homo sapiens, UniProt P41586); type: cell-based; details: GPCR ADCYAP1R1; agonist, 10 μM
# Chain of panel of 168 GPCRs (Homo sapiens, UniProt P41586) (P41586 21-468 limits assumed): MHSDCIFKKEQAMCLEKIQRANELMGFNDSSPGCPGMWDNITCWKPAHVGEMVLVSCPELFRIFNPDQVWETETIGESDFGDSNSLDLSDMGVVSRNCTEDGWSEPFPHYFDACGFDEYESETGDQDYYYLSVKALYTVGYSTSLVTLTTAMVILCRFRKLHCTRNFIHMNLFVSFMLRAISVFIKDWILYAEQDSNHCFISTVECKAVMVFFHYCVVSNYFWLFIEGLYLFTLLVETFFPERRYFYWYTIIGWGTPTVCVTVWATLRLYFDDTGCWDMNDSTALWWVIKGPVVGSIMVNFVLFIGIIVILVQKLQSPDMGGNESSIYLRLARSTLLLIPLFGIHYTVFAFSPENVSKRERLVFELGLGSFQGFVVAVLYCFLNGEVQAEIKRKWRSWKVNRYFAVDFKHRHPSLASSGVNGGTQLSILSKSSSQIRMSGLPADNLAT
# panel of 168 GPCRs [11] = target: panel of 168 GPCRs (Homo sapiens, UniProt Q03431); type: cell-based; details: GPCR PTHR1; agonist, 10 μM
# Chain of panel of 168 GPCRs (Homo sapiens, UniProt Q03431) (Q03431 27-593 limits assumed): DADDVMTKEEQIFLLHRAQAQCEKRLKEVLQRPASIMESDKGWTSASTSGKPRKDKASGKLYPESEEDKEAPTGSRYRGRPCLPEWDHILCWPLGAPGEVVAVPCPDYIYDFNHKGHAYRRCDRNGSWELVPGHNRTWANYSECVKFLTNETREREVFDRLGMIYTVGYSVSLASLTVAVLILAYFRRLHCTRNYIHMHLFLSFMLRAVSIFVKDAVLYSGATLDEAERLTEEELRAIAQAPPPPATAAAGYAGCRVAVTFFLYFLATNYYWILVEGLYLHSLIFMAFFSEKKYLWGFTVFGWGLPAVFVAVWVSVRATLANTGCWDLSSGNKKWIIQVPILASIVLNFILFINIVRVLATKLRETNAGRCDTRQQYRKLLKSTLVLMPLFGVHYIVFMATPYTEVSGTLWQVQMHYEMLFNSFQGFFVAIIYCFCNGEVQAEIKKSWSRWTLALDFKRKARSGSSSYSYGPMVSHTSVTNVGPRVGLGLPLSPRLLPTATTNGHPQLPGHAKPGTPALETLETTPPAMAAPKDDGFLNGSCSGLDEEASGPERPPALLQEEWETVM
# panel of 168 GPCRs [12] = target: panel of 168 GPCRs (Homo sapiens, UniProt P21730); type: cell-based; details: GPCR C5AR1; agonist, 10 μM
# panel of 168 GPCRs [13] = target: panel of 168 GPCRs (Homo sapiens, UniProt Q9HC97); type: cell-based; details: GPCR GPR35; agonist, 10 μM
# panel of 168 GPCRs [14] = target: panel of 168 GPCRs (Homo sapiens, UniProt P43116); type: cell-based; details: GPCR PTGER2; agonist, 10 μM
# panel of 168 GPCRs [15] = target: panel of 168 GPCRs (Homo sapiens, UniProt P35462); type: cell-based; details: GPCR DRD3; agonist, 10 μM
# panel of 168 GPCRs [16] = target: panel of 168 GPCRs (Homo sapiens, UniProt P28566); type: cell-based; details: GPCR HTR1E; agonist, 10 μM
# panel of 168 GPCRs [17] = target: panel of 168 GPCRs (Homo sapiens, UniProt O95977); type: cell-based; details: GPCR EDG6; agonist, 10 μM
# panel of 168 GPCRs [18] = target: panel of 168 GPCRs (Homo sapiens, UniProt P30518); type: cell-based; details: GPCR AVPR2; agonist, 10 μM
# panel of 168 GPCRs [19] = target: panel of 168 GPCRs (Homo sapiens, UniProt P14416); type: cell-based; details: GPCR DRD2L; agonist, 10 μM
# panel of 168 GPCRs [20] = target: panel of 168 GPCRs (Homo sapiens, UniProt Q96RI0); type: cell-based; details: GPCR F2RL3; agonist, 10 μM
# Chain of panel of 168 GPCRs (Homo sapiens, UniProt Q96RI0) (Q96RI0 18-385 limits assumed): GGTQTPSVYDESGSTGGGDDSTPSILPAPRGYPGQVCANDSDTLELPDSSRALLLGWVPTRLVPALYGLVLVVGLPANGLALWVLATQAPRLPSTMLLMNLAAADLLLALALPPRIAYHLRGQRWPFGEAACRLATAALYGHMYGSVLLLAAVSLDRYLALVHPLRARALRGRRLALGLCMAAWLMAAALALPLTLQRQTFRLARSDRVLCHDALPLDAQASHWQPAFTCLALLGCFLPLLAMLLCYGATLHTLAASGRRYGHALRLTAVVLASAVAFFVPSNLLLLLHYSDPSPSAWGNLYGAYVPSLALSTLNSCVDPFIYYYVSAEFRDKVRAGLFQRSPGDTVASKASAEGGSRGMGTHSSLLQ
# panel of 168 GPCRs [21] = target: panel of 168 GPCRs (Homo sapiens, UniProt Q9H3N8); type: cell-based; details: GPCR HRH4; agonist, 10 μM
# panel of 168 GPCRs [22] = target: panel of 168 GPCRs (Homo sapiens, UniProt P28223); type: cell-based; details: GPCR HTR2A; agonist, 10 μM
# panel of 168 GPCRs [23] = target: panel of 168 GPCRs (Homo sapiens, UniProt P0DMS8); type: cell-based; details: GPCR ADORA3; agonist, 10 μM
# panel of 168 GPCRs [24] = target: panel of 168 GPCRs (Homo sapiens, UniProt P51681); type: cell-based; details: GPCR CCR5; agonist, 10 μM
# panel of 168 GPCRs [25] = target: panel of 168 GPCRs (Homo sapiens, UniProt Q15077); type: cell-based; details: GPCR P2RY6; agonist, 10 μM
# panel of 168 GPCRs [26] = target: panel of 168 GPCRs (Homo sapiens, UniProt P28335); type: cell-based; details: GPCR HTR2C; agonist, 10 μM
# Chain of panel of 168 GPCRs (Homo sapiens, UniProt P28335) (P28335 33-458 limits assumed): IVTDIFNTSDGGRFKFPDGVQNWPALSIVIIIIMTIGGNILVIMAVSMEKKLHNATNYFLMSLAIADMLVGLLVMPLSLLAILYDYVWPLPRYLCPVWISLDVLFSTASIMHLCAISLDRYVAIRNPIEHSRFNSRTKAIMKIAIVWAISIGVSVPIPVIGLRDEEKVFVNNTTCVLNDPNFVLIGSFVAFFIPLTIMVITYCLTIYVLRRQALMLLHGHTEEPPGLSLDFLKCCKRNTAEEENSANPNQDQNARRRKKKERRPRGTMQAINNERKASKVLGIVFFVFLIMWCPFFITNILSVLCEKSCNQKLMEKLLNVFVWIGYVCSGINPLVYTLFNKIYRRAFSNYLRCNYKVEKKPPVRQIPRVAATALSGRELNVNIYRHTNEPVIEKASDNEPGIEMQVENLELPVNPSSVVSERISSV
# panel of 168 GPCRs [27] = target: panel of 168 GPCRs (Homo sapiens, UniProt P49238); type: cell-based; details: GPCR CX3CR1; agonist, 10 μM
compound,measurement,setting,value
"COc1ccc(OCCN2CCN(C(=O)c3cc4ccccc4[nH]3)CC2)cc1 [Compound 1, (1H-indol-2-yl)(4-(2-(4-methoxyphenoxy)ethyl)piperazin-1-yl)methanone]","neuroprotection, dose-response",[1],clear concentration dependent effect
same,"neuroprotection, protection against total neurite length decrease",[1]; compared with pramipexole,neuroprotection superior to pramipexole
same,AMES Result,"TA98; TA98, S9 No",Negative
same,AMES Result,"TA98; TA98, S9 Yes",Negative
same,AMES Result,"TA100; TA100, S9 No",Negative
same,AMES Result,"TA100; TA100, S9 Yes",Negative
same,affinity in primary binding panel,[2],"displays affinity for only the D3R, 5-HT1A, 5-HT2B, and Sigmal receptor"
same,β-Arrestin Recruitment activity,panel of 168 GPCRs [3],0%
same,β-Arrestin Recruitment activity,panel of 168 GPCRs [4],4%
same,β-Arrestin Recruitment activity,panel of 168 GPCRs [5],0%
same,β-Arrestin Recruitment activity,panel of 168 GPCRs [6],−4%
same,β-Arrestin Recruitment activity,panel of 168 GPCRs [7],4%
same,β-Arrestin Recruitment activity,panel of 168 GPCRs [8],0%
same,β-Arrestin Recruitment activity,panel of 168 GPCRs [9],3%
same,β-Arrestin Recruitment activity,panel of 168 GPCRs [10],6%
same,β-Arrestin Recruitment activity,panel of 168 GPCRs [11],0%
same,β-Arrestin Recruitment activity,panel of 168 GPCRs [12],0%
same,β-Arrestin Recruitment activity,panel of 168 GPCRs [13],6%
same,β-Arrestin Recruitment activity,panel of 168 GPCRs [14],−3%
same,β-Arrestin Recruitment activity,panel of 168 GPCRs [15],164%
same,β-Arrestin Recruitment activity,panel of 168 GPCRs [16],4%
same,β-Arrestin Recruitment activity,panel of 168 GPCRs [17],17%
same,β-Arrestin Recruitment activity,panel of 168 GPCRs [18],4%
same,β-Arrestin Recruitment activity,panel of 168 GPCRs [19],37%
same,β-Arrestin Recruitment activity,panel of 168 GPCRs [20],4%
same,β-Arrestin Recruitment activity,panel of 168 GPCRs [21],8%
same,β-Arrestin Recruitment activity,panel of 168 GPCRs [22],4%
same,β-Arrestin Recruitment activity,panel of 168 GPCRs [23],8%
same,β-Arrestin Recruitment activity,panel of 168 GPCRs [24],0%
same,β-Arrestin Recruitment activity,panel of 168 GPCRs [25],6%
same,β-Arrestin Recruitment activity,panel of 168 GPCRs [26],6%
same,β-Arrestin Recruitment activity,panel of 168 GPCRs [27],0%
